In ChEMBL document CHEMBL4219212, “Synthesis of 3-(3-hydroxyphenyl)pyrrolidine dopamine D3 receptor ligands with extended functionality for probing the secondary binding pocket” (Bioorg Med Chem Lett, 2018):

Tests used:
[1] = target: T1, 5-hydroxytryptamine receptor 1A (Homo sapiens, UniProt P08908); assay: Displacement of [3H]-Way100635 from 5HT1A receptor (unknown origin) expressed in stable CHO cell membranes by radioligand binding assay
T1 sequence (P08908 whole entry): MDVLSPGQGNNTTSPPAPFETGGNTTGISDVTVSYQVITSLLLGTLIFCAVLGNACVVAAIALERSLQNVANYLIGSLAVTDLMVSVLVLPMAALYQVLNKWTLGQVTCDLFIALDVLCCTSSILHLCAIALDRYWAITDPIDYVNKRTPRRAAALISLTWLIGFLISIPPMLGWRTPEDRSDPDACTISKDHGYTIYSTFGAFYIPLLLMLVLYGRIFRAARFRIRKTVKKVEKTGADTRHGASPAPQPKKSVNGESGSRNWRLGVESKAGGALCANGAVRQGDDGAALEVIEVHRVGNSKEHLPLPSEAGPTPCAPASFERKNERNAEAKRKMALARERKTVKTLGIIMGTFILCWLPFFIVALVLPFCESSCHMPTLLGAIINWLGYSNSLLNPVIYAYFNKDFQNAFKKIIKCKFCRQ

D(1A) dopamine receptor = D(1A) dopamine receptor (Homo sapiens, UniProt P21728); assay: Displacement of [3H]SCH23390 from human dopamine D1 receptor expressed in HEK293T cell membranes by radioligand binding assay
D(3) dopamine receptor = D(3) dopamine receptor (Homo sapiens, UniProt P35462); assay: Binding affinity to human dopamine D3 receptor
D(2) dopamine receptor = D(2) dopamine receptor (Homo sapiens, UniProt P14416); assay: Binding affinity to human dopamine D2 receptor
Sequence of D(2) dopamine receptor (P14416 whole entry): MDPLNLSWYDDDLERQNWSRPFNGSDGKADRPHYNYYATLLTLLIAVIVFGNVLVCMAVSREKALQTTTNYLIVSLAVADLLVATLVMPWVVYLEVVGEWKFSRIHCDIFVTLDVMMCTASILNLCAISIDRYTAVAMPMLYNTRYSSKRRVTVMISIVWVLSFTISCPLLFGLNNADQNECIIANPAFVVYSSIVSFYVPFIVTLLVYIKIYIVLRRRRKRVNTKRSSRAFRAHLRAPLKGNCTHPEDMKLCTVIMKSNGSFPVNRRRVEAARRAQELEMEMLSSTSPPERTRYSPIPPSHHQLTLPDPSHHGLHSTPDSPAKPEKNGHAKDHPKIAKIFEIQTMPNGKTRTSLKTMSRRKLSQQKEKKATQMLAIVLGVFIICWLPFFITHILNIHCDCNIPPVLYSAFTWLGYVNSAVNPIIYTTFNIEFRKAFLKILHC

Sequence of D(1A) dopamine receptor (P21728 whole entry): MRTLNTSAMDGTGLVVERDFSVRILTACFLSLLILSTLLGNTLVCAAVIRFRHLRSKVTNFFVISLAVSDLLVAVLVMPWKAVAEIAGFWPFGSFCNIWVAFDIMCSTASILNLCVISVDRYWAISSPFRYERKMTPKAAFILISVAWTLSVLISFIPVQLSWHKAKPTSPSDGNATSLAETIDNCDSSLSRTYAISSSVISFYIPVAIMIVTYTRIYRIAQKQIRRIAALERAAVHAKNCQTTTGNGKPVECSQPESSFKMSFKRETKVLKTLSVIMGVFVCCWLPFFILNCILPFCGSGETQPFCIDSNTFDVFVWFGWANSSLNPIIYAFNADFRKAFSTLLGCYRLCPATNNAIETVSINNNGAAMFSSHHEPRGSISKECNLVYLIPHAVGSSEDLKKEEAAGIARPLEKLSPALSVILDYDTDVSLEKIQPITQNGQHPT
Sequence of D(3) dopamine receptor (P35462 whole entry): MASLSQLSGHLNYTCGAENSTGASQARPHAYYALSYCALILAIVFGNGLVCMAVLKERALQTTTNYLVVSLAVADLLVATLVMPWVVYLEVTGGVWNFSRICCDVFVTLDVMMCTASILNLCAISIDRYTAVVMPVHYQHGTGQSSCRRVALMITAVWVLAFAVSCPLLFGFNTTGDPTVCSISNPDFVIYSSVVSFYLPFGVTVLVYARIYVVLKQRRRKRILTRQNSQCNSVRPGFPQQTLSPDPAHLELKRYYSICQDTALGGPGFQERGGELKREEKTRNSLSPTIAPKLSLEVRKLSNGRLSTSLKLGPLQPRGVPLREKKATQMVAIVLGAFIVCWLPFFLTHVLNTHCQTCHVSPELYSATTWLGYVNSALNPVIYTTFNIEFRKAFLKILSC

Structure (SMILES): CCCCCCN1CCC(c2cccc(O)c2)C1 (stereo not drawn)
- Ki [1]: 272 nM
- Ki (D(1A) dopamine receptor): 1280 nM

Structure (SMILES): CCCCN1CCC(c2cccc(O)c2)C1 (stereo not drawn)
- Ki [1]: 1810 nM
- Ki (D(1A) dopamine receptor): 861 nM

Structure (SMILES): CCCCCCCCCCN1CCC(c2cccc(O)c2)C1 (stereo not drawn)
- Ki [1]: 12 nM
- Ki (D(1A) dopamine receptor): 128 nM

Structure (SMILES): CCCCCCCCN1CCC(c2cccc(O)c2)C1 (stereo not drawn)
- Ki [1]: 9.4 nM
- Ki (D(1A) dopamine receptor): 170 nM

Structure (SMILES): CN(C)c1ccc(C(=O)NCCCCN2CCC(c3cccc(O)c3)C2)cc1 (single isomer, unassigned; (+))
- Ki (D(1A) dopamine receptor): > 10000 nM

Structure (SMILES): CCCN1CCC(c2cccc(O)c2)C1 (stereo not drawn)
- Ki (D(3) dopamine receptor): 52 nM
- Ki (D(2) dopamine receptor): 68 nM

Structure (SMILES): CCCCCCCCCN1CCC(c2cccc(O)c2)C1 (single isomer, unassigned; (+))
- Ki [1]: 115 nM
- Ki (D(1A) dopamine receptor): > 10000 nM

Structure (SMILES): CCCCCN1CCC(c2cccc(O)c2)C1 (stereo not drawn)
- Ki [1]: 326 nM
- Ki (D(1A) dopamine receptor): 542 nM

Structure (SMILES): CCCCCCCCCN1CCC(c2cccc(O)c2)C1 (racemic)
- Ki [1]: 15 nM
- Ki (D(1A) dopamine receptor): 174 nM

Structure (SMILES): CN(C)c1ccc(C(=O)NCCCCN2CCC(c3cccc(O)c3)C2)cc1 (single isomer, unassigned; (-))
- Ki (D(1A) dopamine receptor): 4590 nM

Structure (SMILES): CCCCCCCCCN1CCC(c2cccc(O)c2)C1 (single isomer, unassigned; (-))
- Ki [1]: 48 nM
- Ki (D(1A) dopamine receptor): 181 nM

Structure (SMILES): CN(C)c1ccc(C(=O)NCCCCN2CCC(c3cccc(O)c3)C2)cc1 (racemic)
- Ki (D(1A) dopamine receptor): 831 nM

Structure (SMILES): CCCCCCCN1CCC(c2cccc(O)c2)C1 (stereo not drawn)
- Ki [1]: 19 nM
- Ki (D(1A) dopamine receptor): 597 nM
